Literature values in US5952465A, “Polypeptides that include conformation-constraining groups which flank a protein-protein interaction site” (Virginia Commonwealth University, priority 1998, dated 1999).
Where a SMILES comes first, the peptide text is derived from it.

Test system: receptors of sweet tasting papillae
Details: comparison substance

For `COC(=O)[C@H](Cc1ccccc1)NC(=O)[C@@H](N)CC(=O)O` [aspartame] (H-Asp-Phe-OMe), the “Sweetness relative to sugar” value is given as 160 times sweeter than sugar.
